Values joined by “and” are separate entries in the source; they are usually repeats but may differ in a detail not shown here. Equal entries are not always repeated. Toxic doses and inconclusive results are not listed. Rule as the data show it: active = T/C of 150% or more; inactive = T/C below 125%. Square brackets hold non-standard residues; d marks the D form. Peptide text beside a SMILES is read from it. * marks the point of attachment. NMeY = CN[CH](Cc1ccc(O)cc1)C(=O)O; Bn = c1ccc(C*)cc1
System: L1210 leukemia ip in BDF1 mice, survival T/C
Assay: NCI In Vivo Anticancer Drug Screen. Data for tumor model L1210 Leukemia (intraperitoneal) in B6D2F1 (BDF1) mice
Conditions: endpoint: mean survival time, higher = longer survival
In short: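 Transplantable tumor model; survival measured in treated vs vehicle control mice. Value = treated/control.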

[1] = dose: 100.0 mg/kg/injection, schedule: Q01DX001 (ip), vehicle: other
[2] = dose: 400.0 mg/kg/injection, schedule: Q01DX001 (ip), vehicle: other
[3] = dose: 100.0 mg/kg/injection, schedule: Q01DX009 (ip), vehicle: Klucel (hydroxypropylcellulose) (HPC)
[4] = dose: 200.0 mg/kg/injection, schedule: Q01DX009 (ip), vehicle: Klucel (hydroxypropylcellulose) (HPC)
[5] = dose: 400.0 mg/kg/injection, schedule: Q01DX009 (ip), vehicle: Klucel (hydroxypropylcellulose) (HPC)
[6] = dose: 100.0 mg/kg/injection, schedule: Q04DX002 (ip), vehicle: saline with Tween-80
[7] = dose: 200.0 mg/kg/injection, schedule: Q01DX009 (ip), vehicle: saline with Tween-80
[8] = dose: 200.0 mg/kg/injection, schedule: Q04DX002 (ip), vehicle: saline with Tween-80
[9] = dose: 400.0 mg/kg/injection, schedule: Q04DX002 (ip), vehicle: saline with Tween-80
[10] = dose: 100.0 mg/kg/injection, schedule: Q01DX001 (ip), vehicle: saline
[11] = dose: 200.0 mg/kg/injection, schedule: Q01DX001 (ip), vehicle: saline
[12] = dose: 100.0 mg/kg/injection, schedule: Q01DX009 (ip), vehicle: saline with Tween-80
[13] = dose: 400.0 mg/kg/injection, schedule: Q01DX009 (ip), vehicle: saline with Tween-80
[14] = dose: 25.0 mg/kg/injection, schedule: Q01DX009 (ip), vehicle: saline
[15] = dose: 50.0 mg/kg/injection, schedule: Q01DX009 (ip), vehicle: saline
[16] = dose: 100.0 mg/kg/injection, schedule: Q04DX003 (ip), vehicle: saline

Measured: T/C

ClCC1Oc2ccccc2O1
inactive: [1] 101 % of control | [2] 97 % of control

C1CCN[N-]C1.C1CCN[N-]C1.[Cl][Pt+2]([Cl])([Cl])[Cl]
inactive: dose: 25.0 mg/kg/injection, schedule: Q04DX003 (ip), vehicle: water 111 % of control | dose: 50.0 mg/kg/injection, schedule: Q04DX003 (ip), vehicle: water 102 % of control | dose: 100.0 mg/kg/injection, schedule: Q04DX003 (ip), vehicle: water 102 % of control

CSc1ccc(NC(=O)COc2ccccc2)cc1
inactive: [3] 102 % of control | [4] 98 % of control | [5] 98 % of control

CCOC(=O)c1ccc(NC(=O)Nc2cc(OC)ccc2OC)cc1
inactive: dose: 25.0 mg/kg/injection, schedule: Q01DX009 (ip), vehicle: saline with Tween-80 100 % of control and 91 % of control | dose: 50.0 mg/kg/injection, schedule: Q01DX009 (ip), vehicle: saline with Tween-80 95 % of control | dose: 100.0 mg/kg/injection, schedule: Q01DX001 (ip), vehicle: saline with Tween-80 98 % of control | [6] 96 % of control | dose: 100.0 mg/kg/injection, schedule: Q04DX003 (ip), vehicle: saline with Tween-80 96 % of control | dose: 200.0 mg/kg/injection, schedule: Q01DX001 (ip), vehicle: saline with Tween-80 95 % of control | [7] 91 % of control | [8] 100 % of control | dose: 400.0 mg/kg/injection, schedule: Q01DX001 (ip), vehicle: saline with Tween-80 91 % of control | [9] 94 % of control

N=C(N)Sc1cnc2ccccc2n1
inactive: [10] 95 % of control | [11] 97 % of control | dose: 400.0 mg/kg/injection, schedule: Q01DX001 (ip), vehicle: saline 105 % of control

CCOc1ccc(Br)cc1/C=C1/NC(=O)NC1=O
inactive: [12] 95 % of control | [6] 102 % of control | [7] 101 % of control | [8] 97 % of control | [13] 98 % of control | [9] 97 % of control

CC(C)(NC(=O)c1ccccc1)C(=O)O
inactive: dose: 50.0 mg/kg/injection, schedule: Q04DX003 (ip), vehicle: Klucel (hydroxypropylcellulose) (HPC) 106 % of control | dose: 100.0 mg/kg/injection, schedule: Q04DX003 (ip), vehicle: Klucel (hydroxypropylcellulose) (HPC) 96 % of control | dose: 200.0 mg/kg/injection, schedule: Q04DX003 (ip), vehicle: Klucel (hydroxypropylcellulose) (HPC) 88 % of control

Nc1cncnc1N
inactive: dose: 30.0 mg/kg/injection, schedule: Q01DX Z (ip), vehicle: saline 101 % of control | dose: 60.0 mg/kg/injection, schedule: Q01DX Z (ip), vehicle: saline 103 % of control | dose: 120.0 mg/kg/injection, schedule: Q01DX Z (ip), vehicle: saline 100 % of control | dose: 240.0 mg/kg/injection, schedule: Q01DX Z (ip), vehicle: saline 97 % of control

N#CCCCC1(CCCC#N)OCCO1
inactive: [14] 94 % of control | [15] 100 % of control

CCC(C)(CCC(C)C)c1ccncc1 (stereo not given)
inactive: [10] 106 % of control | [11] 98 % of control

CC[NH-].CC[NH-].[I][Pt+2][I]
inactive: dose: 12.5 mg/kg/injection, schedule: Q04DX003 (ip), vehicle: saline 106 % of control | [14] 109 % of control | dose: 25.0 mg/kg/injection, schedule: Q04DX003 (ip), vehicle: saline 101 % of control | [15] 105 % of control | dose: 50.0 mg/kg/injection, schedule: Q04DX003 (ip), vehicle: saline 101 % of control | [16] 110 % of control

CCN=C(c1ccc(NC(=O)c2ccc(C(=O)Nc3ccc(C(=NCC)N(CC)C(=O)CC(C)C)cc3)cc2)cc1)N(CC)C(=O)CC(C)C
inactive: dose: 3.12 mg/kg/injection, schedule: Q01DX015 (ip), vehicle: methylcellulose (MC) 96 % of control | dose: 6.25 mg/kg/injection, schedule: Q01DX015 (ip), vehicle: methylcellulose (MC) 96 % of control | dose: 12.5 mg/kg/injection, schedule: Q01DX015 (ip), vehicle: methylcellulose (MC) 92 % of control | dose: 25.0 mg/kg/injection, schedule: Q01DX015 (ip), vehicle: methylcellulose (MC) 93 % of control | dose: 50.0 mg/kg/injection, schedule: Q01DX015 (ip), vehicle: methylcellulose (MC) 96 % of control | dose: 100.0 mg/kg/injection, schedule: Q01DX015 (ip), vehicle: methylcellulose (MC) 88 % of control | dose: 200.0 mg/kg/injection, schedule: Q01DX015 (ip), vehicle: methylcellulose (MC) 94 % of control

C1=C(N2CCCCC2)C2CCC1C2 (stereo not given)
inactive: dose: 75.0 mg/kg/injection, schedule: Q01DX001 (ip), vehicle: saline 99 % of control

Cc1ccc(Cl)cc1NC(=O)Oc1ccccc1C(=O)OCc1ccccc1
inactive: [12] 97 % of control | [7] 100 % of control | [13] 94 % of control

CCCCOC(=O)Nc1cc(Cl)ccc1C
inactive: dose: 100.0 mg/kg/injection, schedule: Q01DX001 (ip), vehicle: gum acacia 95 % of control | dose: 200.0 mg/kg/injection, schedule: Q01DX001 (ip), vehicle: gum acacia 96 % of control | dose: 400.0 mg/kg/injection, schedule: Q01DX001 (ip), vehicle: gum acacia 98 % of control

CC(CNC(=O)CCOS(C)(=O)=O)CNC(=O)CCOS(C)(=O)=O
inactive: dose: 100.0 mg/kg/injection, schedule: Q01DX001 (ip), vehicle: carboxymethylcellulose (CMC) 115 % of control | dose: 100.0 mg/kg/injection, schedule: Q04DX003 (ip), vehicle: other 105 % of control | dose: 132.0 mg/kg/injection, schedule: Q01DX009 (ip), vehicle: other 113 % of control | dose: 200.0 mg/kg/injection, schedule: Q01DX001 (ip), vehicle: carboxymethylcellulose (CMC) 107 % of control | dose: 200.0 mg/kg/injection, schedule: Q01DX009 (ip), vehicle: other 122 % of control | dose: 200.0 mg/kg/injection, schedule: Q04DX003 (ip), vehicle: other 121 % of control | dose: 264.0 mg/kg/injection, schedule: Q04DX003 (ip), vehicle: saline 114 % of control | dose: 400.0 mg/kg/injection, schedule: Q01DX001 (ip), vehicle: carboxymethylcellulose (CMC) 120 % of control

c1cc[c]([Sn]([O]B([O][Sn]([c]2ccccc2)([c]2ccccc2)[c]2ccccc2)[O][Sn]([c]2ccccc2)([c]2ccccc2)[c]2ccccc2)([c]2ccccc2)[c]2ccccc2)cc1
inactive: dose: 5.0 mg/kg/injection, schedule: Q04DX002 (ip), vehicle: saline with Tween-80 101 % of control | dose: 10.0 mg/kg/injection, schedule: Q04DX002 (ip), vehicle: saline with Tween-80 104 % of control | dose: 20.0 mg/kg/injection, schedule: Q04DX002 (ip), vehicle: saline with Tween-80 101 % of control

COc1ccc(/C(C#N)=C/c2ccncc2)cc1OC
inactive: [1] 105 % of control | dose: 200.0 mg/kg/injection, schedule: Q01DX001 (ip), vehicle: other 94 % of control | [2] 97 % of control

CCCCCCCCCCCCCCOc1ccc(Cl)cc1Cl
inactive: [3] 107 % of control | [4] 100 % of control | [5] 105 % of control

Br/C(=C(/Br)c1ccccc1)c1ccccc1
inactive: dose: 50.0 mg/kg/injection, schedule: Q01DX009 (ip), vehicle: Klucel (hydroxypropylcellulose) (HPC) 105 % of control | [3] 91 % of control | [4] 102 % of control

COc1c(-c2cc(C)nc(NC#N)n2)c(O)cc2occc12
inactive: dose: 100.0 mg/kg/injection, schedule: Q04DX002 (ip), vehicle: Klucel (hydroxypropylcellulose) (HPC) 95 % of control | dose: 200.0 mg/kg/injection, schedule: Q04DX002 (ip), vehicle: Klucel (hydroxypropylcellulose) (HPC) 95 % of control | dose: 400.0 mg/kg/injection, schedule: Q04DX002 (ip), vehicle: Klucel (hydroxypropylcellulose) (HPC) 98 % of control

CNC(Cc1ccc(OCc2ccccc2)cc1)C(=O)NC(CC(C)C)C(=O)OC (stereo not given) (H-[NMeY](Bn)-Leu-OMe; configuration not given here)
inactive: [15] 97 % of control | dose: 100.0 mg/kg/injection, schedule: Q01DX009 (ip), vehicle: saline 100 % of control | [16] 104 % of control | dose: 200.0 mg/kg/injection, schedule: Q04DX003 (ip), vehicle: saline 102 % of control

From PubChem BioAssay AID248 (DTP/NCI, 2004)
